Measurements from patent US20120237446A1, “Compounds for binding and imaging amyloid plaques and their use” (BAYER PHARMA AKTIENGESELLSCHAFT, priority 2005, published 2012).

Tests used:
[1] = target: T1, human AD brain homogenate (ADH) (Homo sapiens, UniProt P05067); test: Competition binding assay with a tritiated amyloid ligand using brain homogenate from AD patients; conditions: competition with 10 nM tritiated amyloid ligand, 100 μg/mL AD frontal cortex homogenate, PBS 0.1% BSA, 3 h, room temperature
T1 construct: from tissue; host or cells: frontal cortex (grey and white matter) of AD patients, homogenised in PBS
T1 sequence (P05067 672-713 limits assumed): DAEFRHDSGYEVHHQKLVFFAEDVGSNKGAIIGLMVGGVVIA
Procedure: A competition assay with a tritiated amyloid ligand was performed in 96-well plates (Greiner bio-one; Cat. 651201; Lot. 06260130) using brain homogenate from AD patients. Homogenates were prepared by homogenizing (Ultra-Turrax, setting 2, 30 s, 24000 rpm) dissected frontal cortex containing grey matter and white matter from AD patients in phosphate buffered saline (PBS, pH 7.4). The homogenate with a concentration of 100 mg wet tissue/mL was divided into aliquots of 300 μL and stored at −80° C. Varying concentrations of the unlabeled test substances were incubated with 100 μg/mL homogenate and 10 nM of the tritiated ligand in PBS, 0.1% BSA (final volume 200 μL) for 3 h at room temperature. Subsequently the binding mixture was filtered through Whatman GF/B filters (wetted with PBS, 0.1% BSA) using a Filtermate 196 harvester (Packard). Filters were then washed twice with PBS, 0.1% BSA and 40 μL scintillator was added to each well before the bound radioactivity was measured in a TopCount devise (Perkin Elmer). Non-specific binding was assessed by adding an excess of the reference ligand to the reaction mixture. Finally IC50 values were calculated with the help of appropriate analysis software.

amyloid beta plaques = target: T2, amyloid beta plaques (Homo sapiens, UniProt P05067); test: Autoradiographical analysis of binding to human brain sections; conditions: cortex sections of AD patients; controls from HC and FTD patients; blocking with excess of cold compound
T2 construct: Alzheimer's disease patients (AD) with amyloid beta plaques; from tissue; host or cells: fresh frozen and paraffin embedded frontal lobe sections of AD patients
T2 sequence (P05067 672-713 limits assumed): as above
Procedure: FIG. 4 Autoradiographical analysis of binding of compound 28 to brain sections from cortex of Alzheimer's disease patients (AD) with amyloid beta plaques. Control sections without amyloid beta pathology stem from healthy volunteers (HC) and fronto-temporal dementia (FTD) patients. Blocking of specific signals was performed with an excess of cold compound. […] Fresh frozen as well as paraffin embedded sections of the frontal lobe from Alzheimer's dementia patients, frontotemporal dementia patients and age matched controls were used for the study. Frozen sections, sliced at 18 μm thickness on a cryostate (Leica, Germany) and paraffin sections, sliced on a sliding microtom (Leica) at a thickness of 6 μm, were mounted onto glass slides (Superfrost Plus, Fa. Menzel, Braunschweig Germany). Frozen sections were allowed to adhere to the slides for several nights at −20° C. The paraffin sections were deparaffinized using routine histological methods. For binding studies sections were incubated with the labeled test compound at 10-20 Bq/μL diluted in 25 mM Hepes buffer, pH 7.4, 0.1% BSA (200-300 μL/slide) for 1.5 h. in a humidified chamber. For blocking experiments an excess of the unlabeled test substance was added to the incubation mixture. […] The air-dried sections were exposed to imaging plates and signals were detected by a phosphoimager device (Fuji BAS5000).

[2] = Biodistribution (brain uptake and wash-out) in mice; assay type: in vivo, male NMRI mice
Procedure: Biodistribution and excretion studies were performed in male NMRI mice (body weight app. 30 g; 3 animals per time point). The animals were kept under normal laboratory conditions at a temperature of 22±2° C. and a dark/light rhythm of 12 h. Food and water were provided ad libitium. During an acclimation period of at least 3 days before the beginning of the study animals were clinically examined to ascertain the absence of abnormal clinical signs.
At 2 min, 5 min, 30 min, 1 h, 4 h post intravenous injection via the tail vein of ca. 185 kBq of the test compound, urine and feces were quantitatively collected. At the same time points, animals were sacrificed by decapitation under isoflurane anaesthesia and organs and tissues of interest were removed for the determination of radioactivity using a gamma-counter. For analysis the decay corrected percentage of the injected dose per tissue weight (% ID/g±standard deviation) was calculated.

Row | SMILES | IC50 [1] [nM] | also measured
1 | CN(C)c1ccc(NC=CC(=O)c2ccc(F)c(C(F)(F)F)c2)cc1 (mixture of isomers) [Compound 7, (E/Z)-3-{[4-(Dimethylamino)phenyl]amino}-1-[4-fluoro-3-(trifluoromethyl)phenyl]prop-2-en-1-one] | 258 | 
2 | O=C(C=CNc1ccc(F)c(Br)c1)c1ccccc1 (mixture of isomers) [Compound 13, (E/Z)-3-[(3-Bromo-4-fluorophenyl)amino]-1-phenylprop-2-en-1-one] | 46 | 
3 | CN(C)c1ccc(NC=CC(=O)c2ccc(F)cc2)cc1 (mixture of isomers) [Compound 6, (E/Z)-3-{[4-(Dimethylamino)phenyl]amino}-1-(4-fluorophenyl)prop-2-en-1-one] | 5 | 
4 | O=C(C=CNc1ccc(F)cc1)c1ccccc1 (mixture of isomers) [Compound 12, (E/Z)-3-[(4-Fluorophenyl)amino]-1-phenylprop-2-en-1-one] | 26 | 
5 | CN(C)c1ccc(NC=CC(=O)c2ccc([18F])nc2)cc1 (mixture of isomers) [Compound 28, (E/Z)-3-{[4-(Dimethylamino)phenyl]amino}-1-(6-[^18F]-fluoropyridin-3-yl)prop-2-en-1-one] |  | Autoradiographic binding to brain sections (in words) (amyloid beta plaques): plaque-specific signals; Brain uptake and elimination of the radioactive background signal from the brain (in words) ([2]; healthy mouse brain, devoid of plaques): advantageous rapid elimination of the radioactive background signal from the brain; Brain uptake at 2 min ([2]; mice, 2 min after intravenous injection, [18F] signal, healthy brain): 7.66 % ID/g; Brain uptake at 30 min ([2]; mice, 30 min after intravenous injection, [18F] signal, healthy brain): 0.78 % ID/g; Brain wash-out ratio [% ID/g at 2 min]/[% ID/g at 30 min] ([2]; mice, intravenous injection, healthy brain): 9.8
6 | CN(C)c1ccc(NC=CC(=O)c2ccc(F)nc2)cc1 (mixture of isomers) [Compound 10, (E/Z)-3-{[4-(Dimethylamino)phenyl]amino}-1-(6-fluoropyridin-3-yl)prop-2-en-1-one] | 4 | 

Further lines, with some results ahead:

Row | IC50 [1] [nM] | SMILES | also measured
7 | 28 | COc1ccc(NC=CC(=O)c2ccc(F)nc2)cc1 (mixture of isomers) [Compound 11, (E/Z)-1-(6-Fluoropyridin-3-yl)-3-[(4-methoxyphenyl)amino]prop-2-en-1-one] | 
8 | 140 | O=C(C=CNc1ccc(OCCF)cc1)c1ccc(-c2ccccc2)cc1 (mixture of isomers) [Compound 14, (E/Z)-1-Biphenyl-4-yl-3-{[4-(2-fluoroethoxy)phenyl]amino}prop-2-en-1-one] | 
9 | 13 | O=C(C=CNc1ccc(OCCF)cc1)c1ccc(Br)cc1 (mixture of isomers) [Compound 3, (E/Z)-1-(4-Bromophenyl)-3-{[4-(2-fluoroethoxy)phenyl]amino}prop-2-en-1-one] | 
10 | 17 | O=C(C=CNc1ccc(OCCF)cc1)c1ccccc1 (mixture of isomers) [Compound 2, (E/Z)-3-{[4-(2-Fluoroethoxy)phenyl]amino}-1-phenylprop-2-en-1-one] | 
11 | 18 | O=C(/C=C\Nc1ccc(OCCCF)cc1)c1ccccc1 [Compound 4, (Z)-3-{[4-(3-Fluoropropoxy)phenyl]amino}-1-phenylprop-2-en-1-one] | 
12 | 9 | O=C(C=CNc1ccc(OCF)cc1)c1ccccc1 (mixture of isomers) [Compound 1, (E/Z)-3-{[4-(Fluoromethoxy)phenyl]amino}-1-phenylprop-2-en-1-one] | 
13 | 400 | COc1ccc(NC=CC(=O)c2ccc(F)cc2)cc1 (mixture of isomers) [Compound 5, (E/Z)-1-(4-Fluorophenyl)-3-[(4-methoxyphenyl)amino]prop-2-en-1-one] | 
